In PubChem BioAssay (NCI):
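In this assay, cells in 96-well plates receive the compound at five concentrations for 48 hours. Endpoints are linearly interpolated between the surrounding concentrations. At the TGI there is no net growth.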

Experiments:
Assay in all cases: growth of human tumour cells (NCI), 48 h
T-47D breast = test system: T-47D breast
SN12C renal = test system: SN12C renal
PC-3 prostate = test system: PC-3 prostate
ACHN renal = test system: ACHN renal
SK-MEL-2 melanoma = test system: SK-MEL-2 melanoma
A549 NSCLC = test system: A549 NSCLC
SK-OV-3 ovarian = test system: SK-OV-3 ovarian
TK-10 renal = test system: TK-10 renal
HOP-92 NSCLC = test system: HOP-92 NSCLC
NCI-H460 lung = test system: NCI-H460 lung
NCI-H522 lung = test system: NCI-H522 lung
SF-539 CNS = test system: SF-539 CNS
HCT-15 colon = test system: HCT-15 colon
SNB-75 CNS = test system: SNB-75 CNS
CCRF-CEM leukemia = test system: CCRF-CEM leukemia
LOX IMVI melanoma = test system: LOX IMVI melanoma
DU-145 prostate = test system: DU-145 prostate
SR leukemia = test system: SR leukemia
MALME-3M melanoma = test system: MALME-3M melanoma
HOP-62 NSCLC = test system: HOP-62 NSCLC
OVCAR-4 ovarian = test system: OVCAR-4 ovarian
CAKI-1 renal = test system: CAKI-1 renal
MOLT-4 leukemia = test system: MOLT-4 leukemia
SK-MEL-5 melanoma = test system: SK-MEL-5 melanoma
MCF7 breast = test system: MCF7 breast
OVCAR-5 ovarian = test system: OVCAR-5 ovarian
K-562 leukemia = test system: K-562 leukemia
SF-268 CNS = test system: SF-268 CNS
NCI-H23 lung = test system: NCI-H23 lung
KM12 colon = test system: KM12 colon
BT-549 breast = test system: BT-549 breast
SK-MEL-28 melanoma = test system: SK-MEL-28 melanoma
COLO 205 colon = test system: COLO 205 colon
OVCAR-3 ovarian = test system: OVCAR-3 ovarian
MDA-N = test system: MDA-N
RXF 393 renal = test system: RXF 393 renal
UO-31 renal = test system: UO-31 renal
EKVX NSCLC = test system: EKVX NSCLC
A498 renal = test system: A498 renal
NCI-H226 lung = test system: NCI-H226 lung
OVCAR-8 ovarian = test system: OVCAR-8 ovarian
SNB-19 CNS = test system: SNB-19 CNS
HS 578T breast = test system: HS 578T breast
IGROV1 ovarian = test system: IGROV1 ovarian
M14 melanoma = test system: M14 melanoma
U251 CNS = test system: U251 CNS
SF-295 CNS = test system: SF-295 CNS
HCC-2998 colon = test system: HCC-2998 colon
MDA-MB-435 = test system: MDA-MB-435
786-0 renal = test system: 786-0 renal
HT29 colon = test system: HT29 colon
MDA-MB-231 breast = test system: MDA-MB-231 breast
RPMI-8226 leukemia = test system: RPMI-8226 leukemia
UACC-257 melanoma = test system: UACC-257 melanoma
UACC-62 melanoma = test system: UACC-62 melanoma
HCT-116 colon = test system: HCT-116 colon
NCI/ADR-RES ovarian = test system: NCI/ADR-RES ovarian
SW-620 colon = test system: SW-620 colon
HL-60(TB) leukemia = test system: HL-60(TB) leukemia

## ONCCCn1cnc2c(NC3CC3)ncnc21
T-47D breast
  TGI: > 100 µM
SN12C renal
  TGI: > 100 µM
PC-3 prostate
  TGI: > 100 µM
ACHN renal
  TGI: > 100 µM
SK-MEL-2 melanoma
  TGI: > 100 µM
A549 NSCLC
  TGI: > 100 µM
SK-OV-3 ovarian
  TGI: > 100 µM
TK-10 renal
  TGI: > 100 µM
HOP-92 NSCLC
  TGI: > 100 µM
NCI-H460 lung
  TGI: > 100 µM
NCI-H522 lung
  TGI: > 100 µM
SF-539 CNS
  TGI: > 100 µM
HCT-15 colon
  TGI: > 100 µM
SNB-75 CNS
  TGI: > 100 µM
CCRF-CEM leukemia
  TGI: > 100 µM
LOX IMVI melanoma
  TGI: > 100 µM
DU-145 prostate
  TGI: > 100 µM
SR leukemia
  TGI: > 100 µM
MALME-3M melanoma
  TGI: > 100 µM
HOP-62 NSCLC
  TGI: > 100 µM
OVCAR-4 ovarian
  TGI: > 100 µM
CAKI-1 renal
  TGI: > 100 µM
MOLT-4 leukemia
  TGI: > 100 µM
SK-MEL-5 melanoma
  TGI: > 100 µM
MCF7 breast
  TGI: > 100 µM
OVCAR-5 ovarian
  TGI: > 100 µM
K-562 leukemia
  TGI: > 100 µM
SF-268 CNS
  TGI: > 100 µM
NCI-H23 lung
  TGI: > 100 µM
KM12 colon
  TGI: > 100 µM
BT-549 breast
  TGI: > 100 µM
SK-MEL-28 melanoma
  TGI: > 100 µM
COLO 205 colon
  TGI: > 100 µM
OVCAR-3 ovarian
  TGI: > 100 µM
MDA-N
  TGI: > 100 µM
RXF 393 renal
  TGI: > 100 µM
UO-31 renal
  TGI: > 100 µM
EKVX NSCLC
  TGI: > 100 µM
A498 renal
  TGI: > 100 µM
NCI-H226 lung
  TGI: > 100 µM
OVCAR-8 ovarian
  TGI: > 100 µM
SNB-19 CNS
  TGI: > 100 µM
HS 578T breast
  TGI: > 100 µM
IGROV1 ovarian
  TGI: > 100 µM
M14 melanoma
  TGI: > 100 µM
U251 CNS
  TGI: > 100 µM
SF-295 CNS
  TGI: > 100 µM
HCC-2998 colon
  TGI: > 100 µM
MDA-MB-435
  TGI: > 100 µM
786-0 renal
  TGI: > 100 µM
HT29 colon
  TGI: > 100 µM
MDA-MB-231 breast
  TGI: > 100 µM
RPMI-8226 leukemia
  TGI: > 100 µM
UACC-257 melanoma
  TGI: > 100 µM
UACC-62 melanoma
  TGI: > 100 µM
HCT-116 colon
  TGI: > 100 µM
NCI/ADR-RES ovarian
  TGI: > 100 µM
SW-620 colon
  TGI: > 100 µM

## Nn1c(SCC(=O)O)nc2ccccc2c1=O
T-47D breast
  TGI: > 100 µM
SN12C renal
  TGI: > 100 µM
PC-3 prostate
  TGI: > 100 µM
ACHN renal
  TGI: > 100 µM
SK-MEL-2 melanoma
  TGI: > 100 µM
A549 NSCLC
  TGI: > 100 µM
TK-10 renal
  TGI: > 100 µM
HOP-92 NSCLC
  TGI: > 100 µM
NCI-H460 lung
  TGI: > 100 µM
NCI-H522 lung
  TGI: > 100 µM
SF-539 CNS
  TGI: > 100 µM
HCT-15 colon
  TGI: > 100 µM
SNB-75 CNS
  TGI: > 100 µM
CCRF-CEM leukemia
  TGI: > 100 µM
LOX IMVI melanoma
  TGI: > 100 µM
DU-145 prostate
  TGI: > 100 µM
SR leukemia
  TGI: > 100 µM
MALME-3M melanoma
  TGI: > 100 µM
OVCAR-4 ovarian
  TGI: > 100 µM
CAKI-1 renal
  TGI: > 100 µM
MOLT-4 leukemia
  TGI: > 100 µM
SK-MEL-5 melanoma
  TGI: > 100 µM
MCF7 breast
  TGI: > 100 µM
OVCAR-5 ovarian
  TGI: > 100 µM
K-562 leukemia
  TGI: > 100 µM
SF-268 CNS
  TGI: > 100 µM
NCI-H23 lung
  TGI: > 100 µM
KM12 colon
  TGI: > 100 µM
BT-549 breast
  TGI: > 100 µM
SK-MEL-28 melanoma
  TGI: > 100 µM
COLO 205 colon
  TGI: > 100 µM
OVCAR-3 ovarian
  TGI: > 100 µM
MDA-N
  TGI: > 100 µM
RXF 393 renal
  TGI: > 100 µM
UO-31 renal
  TGI: > 100 µM
EKVX NSCLC
  TGI: > 100 µM
A498 renal
  TGI: > 100 µM
NCI-H226 lung
  TGI: > 100 µM
OVCAR-8 ovarian
  TGI: > 100 µM
SNB-19 CNS
  TGI: > 100 µM
HS 578T breast
  TGI: > 100 µM
IGROV1 ovarian
  TGI: > 100 µM
M14 melanoma
  TGI: > 100 µM
U251 CNS
  TGI: > 100 µM
SF-295 CNS
  TGI: > 100 µM
HCC-2998 colon
  TGI: > 100 µM
MDA-MB-435
  TGI: > 100 µM
786-0 renal
  TGI: > 100 µM
HT29 colon
  TGI: > 100 µM
MDA-MB-231 breast
  TGI: > 100 µM
RPMI-8226 leukemia
  TGI: > 100 µM
UACC-257 melanoma
  TGI: > 100 µM
UACC-62 melanoma
  TGI: > 100 µM
HCT-116 colon
  TGI: > 100 µM
NCI/ADR-RES ovarian
  TGI: > 100 µM
SW-620 colon
  TGI: > 100 µM

## Cc1cc(=O)[nH]c(S(=O)(=O)NC(=S)Nc2ccc(Cl)cc2)n1
T-47D breast
  TGI: > 100 µM
HL-60(TB) leukemia
  TGI: > 100 µM
SN12C renal
  TGI: > 100 µM
PC-3 prostate
  TGI: > 100 µM
ACHN renal
  TGI: > 100 µM
SK-MEL-2 melanoma
  TGI: > 100 µM
A549 NSCLC
  TGI: > 100 µM
SK-OV-3 ovarian
  TGI: > 100 µM
TK-10 renal
  TGI: > 100 µM
HOP-92 NSCLC
  TGI: > 100 µM
NCI-H460 lung
  TGI: > 100 µM
NCI-H522 lung
  TGI: 84.6 µM
SF-539 CNS
  TGI: > 100 µM
HCT-15 colon
  TGI: > 100 µM
SNB-75 CNS
  TGI: > 100 µM
CCRF-CEM leukemia
  TGI: > 100 µM
DU-145 prostate
  TGI: > 100 µM
SR leukemia
  TGI: > 100 µM
MALME-3M melanoma
  TGI: > 100 µM
HOP-62 NSCLC
  TGI: > 100 µM
OVCAR-4 ovarian
  TGI: > 100 µM
CAKI-1 renal
  TGI: > 100 µM
MOLT-4 leukemia
  TGI: > 100 µM
SK-MEL-5 melanoma
  TGI: > 100 µM
MCF7 breast
  TGI: > 100 µM
OVCAR-5 ovarian
  TGI: > 100 µM
SF-268 CNS
  TGI: > 100 µM
NCI-H23 lung
  TGI: > 100 µM
KM12 colon
  TGI: > 100 µM
BT-549 breast
  TGI: > 100 µM
SK-MEL-28 melanoma
  TGI: > 100 µM
COLO 205 colon
  TGI: > 100 µM
OVCAR-3 ovarian
  TGI: > 100 µM
MDA-N
  TGI: > 100 µM
RXF 393 renal
  TGI: > 100 µM
UO-31 renal
  TGI: > 100 µM
EKVX NSCLC
  TGI: > 100 µM
A498 renal
  TGI: > 100 µM
NCI-H226 lung
  TGI: > 100 µM
OVCAR-8 ovarian
  TGI: > 100 µM
SNB-19 CNS
  TGI: > 100 µM
HS 578T breast
  TGI: > 100 µM
IGROV1 ovarian
  TGI: > 100 µM
M14 melanoma
  TGI: > 100 µM
U251 CNS
  TGI: > 100 µM
SF-295 CNS
  TGI: > 100 µM
HCC-2998 colon
  TGI: > 100 µM
MDA-MB-435
  TGI: > 100 µM
786-0 renal
  TGI: > 100 µM
HT29 colon
  TGI: > 100 µM
MDA-MB-231 breast
  TGI: > 100 µM
RPMI-8226 leukemia
  TGI: > 100 µM
UACC-257 melanoma
  TGI: > 100 µM
UACC-62 melanoma
  TGI: > 100 µM
HCT-116 colon
  TGI: > 100 µM
NCI/ADR-RES ovarian
  TGI: > 100 µM
SW-620 colon
  TGI: > 100 µM
